Data taken from patent publication US9249134B2, “Process for preparation of amorphous form of dasatinib” (CADILA HEALTHCARE LIMITED, priority 2013, dated 2016).

Columns and labels:
[1] = in water or organic solvents like methanol, ethanol, propanol, isopropanol, butanol; even in the condition of heating; cited from earlier work
[2] = Solid-state stability of prior-art amorphous dasatinib under stability conditions; assay type: physicochemical; settings: amorphous dasatinib having higher residual solvents (prior art process), subjected to stability conditions
Method: Therefore, the prior art process provides amorphous dasatinib containing higher amount of residual solvent which is not suitable for pharmaceutical developments.
As used herein, the term “stable dasatinib” includes either: amorphous dasatinib that after exposure to a relative humidity of 75% at 40° C. or 60% at 25° C., for a period of at least three months contains less than about 0.5% (wt/wt) total impurities and doesn't change to crystalline form.

| solid form stability (amorphous to crystalline conversion) [2] | SMILES | solubility [1] |
| --- | --- | --- |
|  | Cc1nc(Nc2ncc(C(=O)Nc3c(C)cccc3Cl)s2)cc(N2CCN(CCO)CC2)n1 [Dasatinib, N-(2-chloro-6-methylphenyl)-2-[[6-[4-(2-hydroxyethyl)-1-piperazinyl]-2-methyl-4-pyrimidinyl]amino]-5-thiazolecarboxamide] | practically insoluble |
| converts to crystalline form | Cc1nc(Nc2ncc(C(=O)Nc3c(C)cccc3Cl)s2)cc(N2CCN(CCO)CC2)n1 [amorphous dasatinib] |  |
